Experimental data from patent US4525589A, “Isoquinolinesulfonyl derivatives” (Asahi Kasei Kogyo Kabushiki Kaisha, priority 1981, dated 1985).

How the values were obtained:
[1] = system: femoral artery; experiment: Effect on blood flow volume of femoral artery of dog; assay type: in vivo, dog of mixed breed; conditions: 1 mg/Kg intravenous, anesthetized dog; for change in vivo at 1 mg/kg: Canis lupus familiaris, iv, read-out: Increased Blood Flow Volume in Femoral Artery
Method: (§1) The effect of the isoquinolinesulfonyl derivatives and the pharmaceutically acceptable acid addition salts of this invention on the vasodilatation of the femoral and vertebral arteries can be measured by anesthetizing a dog of mixed breed weighting 8 to 15 Kg by an intravenous administration of 35 mg/Kg of pentbarbital, providing an acute type probe (a product of Nippon Koden K.K., Japan) with the femoral and vertebral arteries, administering the isoquinolinesulfonyl derivatives and the pharmaceutically acceptable acid addition salts to the femoral vein through a polyethylene tube inserted into the femoral vein side chain and measuring the blood flow volume with an electromagnetic flowmeter (a product of Nippon Koden K.K., Japan, "MF-27"). Among the isoquinolinesulfonyl compounds of Formula (I) of this invention, those with l=0 and the [drawing 37] group show a high action for increasing blood flow and simultaneously a selectivity to vertebral arteries. For example, when 1 mg/Kg of 1-(5-isoquinolinesulfonyl)piperazine, i.e., Compound (35) was intravenously administered, the increased blood flow volumes in the vertebral artery and in the femoral artery were 98% and 65%, respectively. Also the isoquinolinesulfonyl compounds of Formula (I) of this invention with l=1 and one of the R2 and R3 groups=a hydrogen atom show a continuing blood flow increase. With 1 mg/Kg of N-(2-aminoethyl)-5-isoquinolinesulfonamide, i.e., Compound (1), an increase in the blood flow volume in the vertebral artery was continued for at least 30 minutes.
(§2) The effect on the vasodilatation of the femoral and vertebral arteries was measured by anesthetizing a dog of mixed breed weighing 8 to 15 Kg by an intravenous administration of 35 mg/Kg of pentabarbital, providing an acute type probe (a product of Nippon Koden K.K., Japan) with the femoral and vertebral arteries, administering the 5-isoquinolinesulfonyl derivatives and their pharmaceutically acceptable acid addition salts to the femoral vein through a polyethylene tube inserted into the femoral vein side chain and measuring the blood flow volume with an electromagnetic blood flowmeter (a product of Nippon Koden K.K., Japan, "MF-27").

[2] = system: mesenteric artery; experiment: Relaxation of mesenteric artery (helical strips contracted with KCl, organ bath); design: species or system rabbit (home bred, Japanese species); conditions: Oryctolagus cuniculus; concentration for 50% relaxation; KCl 15~20 mM contraction; read-out: Relaxation of Mesenteric Artery ED50
Method: After a home bred rabbit of a Japanese species weighing about 3 Kg was subjected to bloodletting, resulting in death and then to abdominal incision, the mesenteric artery was taken out, cut into helicoids of 2 mm×25 mm and suspended in a 20 ml organ bath filled with a Krebs-Henseleit solution into which a mixed gas of 95% by volume of O2 and 5% by volume of CO2 was introduced and one end of the artery was connected with an isometric transducer. When a load of 1.5 g was applied to the artery, the contraction and the relaxation of the artery were recorded as a weight on the transducer (a product of Nippon Koden K.K., Japan, "FD Pickup TB-912T"). The relaxation of the mesenteric artery was observed by adding the isoquinolinesulfonyl derivatives and their pharmaceutically acceptable acid addition salts of this invention to the mesenteric artery at the condition of about one half of the maximum contraction with KCl at a KCl concentration of 15~20 mM. When the complete relaxation of the mesenteric artery was designated 100%, the concentration of the isoquinolinesulfonyl derivatives and their pharmaceutically acceptable acid addition salts which brought about a relaxation of 50% is shown in Table 12.

[3] = system: vertebral artery; experiment: Effect on blood flow volume of vertebral artery of dog; assay type: in vivo, dog of mixed breed; conditions: 1 mg/Kg intravenous; for change in vivo at 1 mg/kg: Canis lupus familiaris, read-out: Increased Blood Flow Volume in Vertebral Artery
Method: as §1, §2

[4] = Acute toxicity, intravenous administration to male ddY-strain mice; conditions: mouse, in vivo
Method: The acute toxicity of the 5-isoquinolinesulfonyl derivatives and their pharmaceutically acceptable acid addition salts were measured by giving male ddY-strain mice an intravenous administration.

Row | SMILES | EC50 [2] [µM] | change in vivo at 1 mg/kg [1] [%] | LD50 [4] [mg/kg] | change in vivo at 1 mg/kg ([3]; anesthetized dog) [%] | other results
1 | O=S(=O)(c1cccc2cnccc12)N1CCNCC1 [Compound (35), 1-(5-isoquinolinesulfonyl)piperazine] | 0.6 | – | – | – | Increased Blood Flow Volume in Femoral Artery [1]: 65%; Increased Blood Flow Volume in Vertebral Artery ([3]; anesthetized dog): 98%
2 | NCCNS(=O)(=O)c1cccc2cnccc12 [Compound (1), N-(2-aminoethyl)-5-isoquinolinesulfonamide] | 5 | – | – | – | Duration of increase in the blood flow volume in the vertebral artery ([3]; dog): at least 30 minutes
3 | NCCNS(=O)(=O)c1cccc2cnccc12 [Compound 1] | – | 30 | 108 | 45 | –
4 | O=S(=O)(c1cccc2cnccc12)N1CCN(CC=Cc2ccccc2)CC1 [Compound 59] | – | 25 | 145 | 49 | –
5 | O=S(=O)(c1cccc2cnccc12)N1CCCC1 [Compound 33] | – | 35 | 150 | 37 | –
6 | CNS(=O)(=O)c1cccc2cnccc12 [Compound 25] | – | 38 | 137 | 29 | –
7 | CCCCN(CCCC)CCCNS(=O)(=O)c1cccc2cnccc12 [Compound 19] | – | 25 | 180 | 20 | –
8 | NCCCCNS(=O)(=O)c1cccc2cnccc12 [Compound 3] | – | 33 | 87 | 36 | –
9 | CC1CN(S(=O)(=O)c2cccc3cnccc23)CCN1 (stereo not shown) [Compound 37] | – | 65 | 89 | 90 | –
10 | CN1CCN(S(=O)(=O)c2cccc3cnccc23)CC1 [Compound 36] | – | 35 | 94 | 63 | –
11 | CC(C)CC1CN(S(=O)(=O)c2cccc3cnccc23)CCN1 (stereo not shown) [Compound 46] | – | 32 | 130 | 55 | –
12 | CCCCCCN1CCN(S(=O)(=O)c2cccc3cnccc23)CC1 [Compound 51] | – | 39 | 108 | 68 | –
13 | CN1CCN(S(=O)(=O)c2cccc3cnccc23)CC1 [Compound (36), 1-(5-isoquinolinesulfonyl)-4-methylpiperazine] | 7.7 | – | – | – | –
14 | CC1CN(S(=O)(=O)c2cccc3cnccc23)C(C)CN1 (stereo not shown) [Compound 40] | – | 50 | 42 | 110 | –
15 | CC(C)CC1CN(S(=O)(=O)c2cccc3cnccc23)C(C)CN1 (stereo not shown) [Compound (49), 1-(5-isoquinolinesulfonyl)-2-methyl-5-isobutylpiperazine] | 10 | – | – | – | –
16 | CN(C)CCCNS(=O)(=O)c1cccc2cnccc12 [Compound (17), N-(3-dimethylaminopropyl)-5-isoquinolinesulfonamide] | 10 | – | – | – | –
17 | O=S(=O)(c1cccc2cnccc12)N1CCNCC1 [Compound 35] | – | 69 | 29 | 98 | –
18 | CN(CCCNS(=O)(=O)c1cccc2cnccc12)C1CCCCC1 [Compound (22), N-[3-(N-methyl-N-cyclohexylamino)propyl]-5-isoquinolinesulfonamide] | 42 | – | – | – | –
19 | CC(C)C1CN(S(=O)(=O)c2cccc3cnccc23)CCN1 (stereo not shown) [Compound (45), 1-(5-isoquinolinesulfonyl)-3-isopropylpiperazine] | 7.5 | – | – | – | –
